The values that follow come from US20250236629A1, “MEDIUM- OR MACRO-CYCLIC BENZYL-SUBSTITUTED HETEROCYCLE DERIVATIVES AND RELATED USES” (CENTESSA PHARMACEUTICALS (UK) LIMITED, priority 2022, published 2025).

In data set [1] the target is T1, human orexin type 2 receptor (hOX2R) (Homo sapiens, UniProt O43614).
T1 construct: the Orexin receptor cDNA was inserted into pcDNA3.1(+) plasmid vector; expressed in transfected cells
T1 sequence (O43614 1-444): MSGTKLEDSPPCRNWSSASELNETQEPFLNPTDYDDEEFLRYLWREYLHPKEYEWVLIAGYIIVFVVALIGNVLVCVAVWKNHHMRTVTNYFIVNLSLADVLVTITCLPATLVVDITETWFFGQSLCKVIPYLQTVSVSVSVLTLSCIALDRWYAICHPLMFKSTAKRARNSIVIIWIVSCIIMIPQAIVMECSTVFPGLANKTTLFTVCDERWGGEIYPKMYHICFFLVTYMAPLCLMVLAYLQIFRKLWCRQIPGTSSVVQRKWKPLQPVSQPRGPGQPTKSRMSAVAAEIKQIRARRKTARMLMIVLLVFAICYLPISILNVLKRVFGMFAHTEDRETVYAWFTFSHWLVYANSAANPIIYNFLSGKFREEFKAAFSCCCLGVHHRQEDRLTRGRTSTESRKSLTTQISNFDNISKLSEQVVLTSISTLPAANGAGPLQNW
Briefly: Orexin type 2 receptor agonist activity, intracellular Ca2+ (FLIPR TETRA) in CHO cells. The settings on record: CHO cells expressing hOX2R; Ca2+ fluorescence area; 100% = 10 nM human orexin A; read-out: hOx2 pEC50 (converted). The data set is classed as cell-based.

The conditions of data set [2]: DCM.
The subject of data set [3] is B6.Cg-Tg(HCRT-MJD)1Stak/J (Atax) mouse model of NT1. Briefly: Wake-promoting efficacy of oral small molecules, piezoelectric sleep/wake monitoring, Atax mice. Particulars: dosed 5 h after light onset. The data set is classed as in vivo. The method, then:
(§1) Wake-promoting efficacy of oral small molecules. Wake-promoting efficacy was evaluated in the […]) mouse model of NT1 and wild type (WT) colony mates. Mice were monitored in home cages using piezoelectric sensors for rapid, non-invasive classification of sleep and wakefulness by unsupervised machine learning on physiologically relevant readouts, such as body movement and breath rate. Piezoelectric detection is highly correlated with conventional time-intensive electroencephalogram/electromyography measures of sleep/wake states in both WT and NT1 mice. In a counterbalanced, repeated-measures design, mice were orally dosed at 5 h after light onset with test articles and vehicle.

Data set [4] has as its system wild type (WT) colony mates. Briefly: Wake-promoting efficacy of oral small molecules, piezoelectric sleep/wake monitoring, WT mice. The data set is classed as in vivo, mouse. The settings on record: dosed 5 h after light onset. The method, then:
as §1

The next data set addresses T2, OX2R (Mus musculus, UniProt P58308).
T2 construct: host or cells: mice (WT, orexin-deficient and NT1 models), endogenous receptor in brain
T2 sequence (P58308 1-460): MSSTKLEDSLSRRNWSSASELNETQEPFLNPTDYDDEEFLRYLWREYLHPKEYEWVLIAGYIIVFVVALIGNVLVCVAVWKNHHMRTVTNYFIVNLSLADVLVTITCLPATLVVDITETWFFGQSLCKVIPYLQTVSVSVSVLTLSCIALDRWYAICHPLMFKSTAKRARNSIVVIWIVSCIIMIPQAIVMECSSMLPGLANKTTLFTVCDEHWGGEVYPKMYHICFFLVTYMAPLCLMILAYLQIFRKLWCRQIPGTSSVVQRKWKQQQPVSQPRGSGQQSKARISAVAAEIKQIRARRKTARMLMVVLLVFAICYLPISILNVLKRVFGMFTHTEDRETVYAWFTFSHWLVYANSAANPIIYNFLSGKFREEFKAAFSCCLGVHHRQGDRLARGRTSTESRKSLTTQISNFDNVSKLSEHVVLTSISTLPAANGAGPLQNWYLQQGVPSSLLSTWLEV
The settings on record: cited from earlier work.

In another data set the test system is individuals with NT1. Particulars: initial clinical studies; cited from earlier work.
For data set [5] the following is noted: amide bond, 12-membered ring, DMC (2-chloro-1,3-dimethylimidazolinium chloride)/DIEA, DCM, 20.0 °C, 4.0 h.

Like-named read-outs stand apart in the source and are kept apart here.

For `O=C1CCOc2c(F)cc(F)cc2-c2cccc(c2F)C[C@H]2[C@@H](NS(=O)(=O)C3(F)CC3)CCCN12` [Example 47, 1-fluoro-N-((4^2S,4^3S)-1^3,1^5,2^2-trifluoro-5-oxo-8-oxa-4 (2,1)-piperidina-1 (1,2),2 (1,3)-dibenzenacyclooctaphane-4^3-yl)cyclopropane-1-sulfonamide], the EC50 in data set [1] was 0.0398 to 1 nM. In addition, the ring closure, isolated yield in data set [2] (from O=C(O)CCOc1c(F)cc(F)cc1-c1cccc(C[C@@H]2NCCC[C@@H]2NS(=O)(=O)C2(F)CC2)c1F, amide bond, 12-membered ring, DMC (2-chloro-1,3-dimethylimidazolinium chloride)/DIEA, 1.56 mM, 25.0 °C, 1.0 h) came to 44%. Moreover, the “Wake % time 1 h post dose (increase from vehicle)” value in data set [3] (oral dose 0.3 mg/kg) is recorded as 41.3%; in data set [3] (oral dose 1 mg/kg) it was 41.8%; in data set [3] (oral dose 3 mg/kg) it was 40.4%; in data set [4] (oral dose 1 mg/kg), 20.7%; in data set [4] (oral dose 3 mg/kg), 37.6%; in data set [4] (oral dose 10 mg/kg) it was 39.0%.
For `COC(=O)N1CCC[C@H](NS(C)(=O)=O)[C@@H]1CO[C@H]1CC[C@@H](c2ccccc2)CC1` [TAK-925], the wakefulness result on OX2R (subcutaneous, OX2R-knockout mice) is “not in OX2R-knockout mice”; on OX2R (subcutaneous, WT mice), “modestly increased wakefulness”; in the data set with individuals with NT1, “substantial levels of increased wakefulness”. For the same compound, the cataplexy entry in the data set with individuals with NT1 is given as “trends for decreasing cataplexy”.
Consider `O=C1CCOc2c(F)cc(F)cc2-c2cccc(c2F)C[C@H]2[C@@H](NS(=O)(=O)C3(F)CC3)[C@@H](F)CCN12` [Example 43, 1-fluoro-N-((4^2S,4^3R,4^4S)-1^3,1^5,2^2,4^4-tetrafluoro-5-oxo-8-oxa-4 (2,1)-piperidina-1 (1,2),2 (1,3)-dibenzenacyclooctaphane-4^3-yl)cyclopropane-1-sulfonamide], for which the EC50 in data set [1] is 0.0398 to 1 nM. This compound gave a ring closure, yield after HPLC in data set [5] (from O=C(O)CCOc1c(F)cc(F)cc1-c1cccc(C[C@@H]2NCC[C@H](F)[C@@H]2NS(=O)(=O)C2(F)CC2)c1F, 0.148 mM) of 77%.
With “1,1-difluoro-N-((4^2S,4^3R)-1^3,4^4,4^4-trifluoro-6-methyl-5-oxo-9-oxa-6-aza-4 (2,1)-pyrrolidina-1 (1,2),2 (1,3)-dibenzenacyclononaphane-4^3-yl) methanesulfonamide_cis racemic”, the ring closure, isolated yield in data set [2] (other bond, 13-membered ring, triphosgene/TEA, then K2CO3, then MeCN, 0.4 mM, 20.0 °C) worked out at 28.5%.
As to `O=C1CCCN2C(=O)CCOc3ccccc3-c3cccc(c3)CC12` (stereo not drawn), in data set [2] (from O=C(O)CCOc1ccccc1-c1cccc(CC2NCCCC2=O)c1, amide bond, 12-membered ring, DMC (2-chloro-1,3-dimethylimidazolinium chloride)/DIEA, 2.56 mM, 25.0 °C, 12.0 h), the ring closure, isolated yield turned out to be 52%.
Consider `O=C1CCOc2c(F)cccc2-c2cccc(c2)C[C@H]2[C@@H](NS(=O)(=O)C3(F)CC3)CCCN12` [Example 49, 1-fluoro-N-((4^2S,4^3S)-1^3-fluoro-5-oxo-8-oxa-4 (2,1)-piperidina-1 (1,2),2 (1,3)-dibenzenacyclooctaphane-4^3-yl)cyclopropane-1-sulfonamide], for which the EC50 in data set [1] is 0.0398 to 1 nM. Further, in data set [5] (from O=C(O)CCOc1c(F)cccc1-c1cccc(C[C@@H]2NCCC[C@@H]2NS(=O)(=O)C2(F)CC2)c1, 1.84 mM), the ring closure, yield after HPLC came to 71%.
`O=C1CCCN2C(=O)CCOc3ccccc3-c3cccc(c3F)CC12` (stereo not drawn): the ring closure, isolated yield in data set [2] (from O=C(O)CCOc1ccccc1-c1cccc(CC2NCCCC2=O)c1F, amide bond, 12-membered ring, DMC (2-chloro-1,3-dimethylimidazolinium chloride)/DIEA, 2.7 mM, 25.0 °C, 12.0 h) was determined as 53%.
As for `COc1ccc(-c2cccc(C(=O)N(C)C)c2)cc1S(=O)(=O)Nc1cccc(NCCNC(=O)c2ccccc2N(C)C)c1` [YNT-185], at OX2R (NT1 mouse model), the “sleep-onset REM periods and cataplexy-like events” value was “decrease sleep-onset REM periods and cataplexy-like events”. Also, the wakefulness result at OX2R (intraperitoneally or ICV, wild type (WT) and orexin ligand-deficient mice) is on record as “modestly increases wakefulness”.
